From PubChem BioAssay AID652164 (Sanford-Burnham Center for Chemical Genomics, 2013)
The source made the active and inactive calls.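 How the source made its calls: active means IC50 at or below 20 µM; inactive means the rest.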

What follows are compounds tested against Fatty acid synthase (Homo sapiens) (UniProt P49327) (assay: inhibition of human FAS-TE enzyme activity – biochemical, endpoint fluorescence intensity, powder samples, SAR follow-up (AID 652164)). Conditions: recombinant FAS-TE, OMFH substrate fluorescence.
Fatty acid synthase (Homo sapiens), sequence (P49327 whole entry, looked up): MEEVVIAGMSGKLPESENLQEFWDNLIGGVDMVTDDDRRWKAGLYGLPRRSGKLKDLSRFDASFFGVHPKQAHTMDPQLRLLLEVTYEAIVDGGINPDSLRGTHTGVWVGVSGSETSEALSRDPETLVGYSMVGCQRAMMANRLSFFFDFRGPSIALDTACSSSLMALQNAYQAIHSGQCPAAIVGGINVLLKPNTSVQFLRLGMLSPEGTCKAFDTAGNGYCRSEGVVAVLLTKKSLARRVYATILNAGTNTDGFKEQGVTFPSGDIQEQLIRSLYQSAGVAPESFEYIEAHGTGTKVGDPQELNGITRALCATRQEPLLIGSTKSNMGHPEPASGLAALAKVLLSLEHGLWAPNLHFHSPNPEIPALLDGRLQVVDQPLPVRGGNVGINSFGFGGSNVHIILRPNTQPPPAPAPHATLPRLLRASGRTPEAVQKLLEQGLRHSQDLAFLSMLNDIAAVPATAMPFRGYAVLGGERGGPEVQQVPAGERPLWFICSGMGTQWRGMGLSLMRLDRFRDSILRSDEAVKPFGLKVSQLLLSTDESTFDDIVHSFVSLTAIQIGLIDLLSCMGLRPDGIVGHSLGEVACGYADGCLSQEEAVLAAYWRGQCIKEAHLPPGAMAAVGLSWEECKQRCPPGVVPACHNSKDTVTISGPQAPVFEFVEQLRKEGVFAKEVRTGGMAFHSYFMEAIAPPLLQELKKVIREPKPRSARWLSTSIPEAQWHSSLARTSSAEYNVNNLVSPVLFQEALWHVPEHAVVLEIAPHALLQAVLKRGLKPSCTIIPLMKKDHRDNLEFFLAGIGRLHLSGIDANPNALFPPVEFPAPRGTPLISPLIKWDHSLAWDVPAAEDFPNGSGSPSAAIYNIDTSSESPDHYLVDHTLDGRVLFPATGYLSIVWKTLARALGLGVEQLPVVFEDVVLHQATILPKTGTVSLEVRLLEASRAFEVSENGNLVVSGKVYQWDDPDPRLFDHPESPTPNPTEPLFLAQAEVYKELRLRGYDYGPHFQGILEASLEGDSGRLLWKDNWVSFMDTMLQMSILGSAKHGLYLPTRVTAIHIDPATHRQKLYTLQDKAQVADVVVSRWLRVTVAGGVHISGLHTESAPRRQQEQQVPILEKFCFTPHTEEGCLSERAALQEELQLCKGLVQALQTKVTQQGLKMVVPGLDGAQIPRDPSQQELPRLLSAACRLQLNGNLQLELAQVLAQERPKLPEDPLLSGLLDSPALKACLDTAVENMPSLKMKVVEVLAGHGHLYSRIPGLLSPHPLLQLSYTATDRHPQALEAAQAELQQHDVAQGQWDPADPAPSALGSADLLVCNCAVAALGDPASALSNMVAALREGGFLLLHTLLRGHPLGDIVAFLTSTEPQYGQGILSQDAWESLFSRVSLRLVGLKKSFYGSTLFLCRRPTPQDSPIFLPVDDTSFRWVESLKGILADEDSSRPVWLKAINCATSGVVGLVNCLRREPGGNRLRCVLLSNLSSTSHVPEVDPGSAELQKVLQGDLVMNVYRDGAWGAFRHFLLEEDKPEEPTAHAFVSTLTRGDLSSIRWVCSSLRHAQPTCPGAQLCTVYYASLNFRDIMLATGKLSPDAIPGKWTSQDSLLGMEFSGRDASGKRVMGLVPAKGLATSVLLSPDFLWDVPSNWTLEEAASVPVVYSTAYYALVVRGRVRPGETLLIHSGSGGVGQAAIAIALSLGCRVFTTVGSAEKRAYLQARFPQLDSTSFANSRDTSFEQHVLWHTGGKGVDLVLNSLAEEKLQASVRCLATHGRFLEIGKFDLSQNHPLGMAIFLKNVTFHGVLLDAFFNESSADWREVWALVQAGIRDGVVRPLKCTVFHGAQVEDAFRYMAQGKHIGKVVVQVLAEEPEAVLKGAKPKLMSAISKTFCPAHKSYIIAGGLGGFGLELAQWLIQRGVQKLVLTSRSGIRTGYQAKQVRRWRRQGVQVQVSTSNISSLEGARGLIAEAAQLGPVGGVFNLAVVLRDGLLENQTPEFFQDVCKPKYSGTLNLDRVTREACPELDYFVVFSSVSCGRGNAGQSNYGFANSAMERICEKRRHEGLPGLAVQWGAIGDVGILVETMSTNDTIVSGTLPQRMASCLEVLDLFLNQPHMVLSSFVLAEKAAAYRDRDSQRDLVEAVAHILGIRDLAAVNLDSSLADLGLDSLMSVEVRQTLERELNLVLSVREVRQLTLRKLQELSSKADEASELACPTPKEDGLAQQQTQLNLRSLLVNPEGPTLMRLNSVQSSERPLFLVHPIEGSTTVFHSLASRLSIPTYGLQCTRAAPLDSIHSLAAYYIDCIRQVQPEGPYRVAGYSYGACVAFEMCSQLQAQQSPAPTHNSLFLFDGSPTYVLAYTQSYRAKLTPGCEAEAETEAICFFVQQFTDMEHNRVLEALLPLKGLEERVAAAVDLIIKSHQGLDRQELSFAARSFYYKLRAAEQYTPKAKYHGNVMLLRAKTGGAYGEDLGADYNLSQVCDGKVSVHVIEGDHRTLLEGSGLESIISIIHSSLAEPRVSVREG
With `CCCCC(=O)Nc1nc(-c2ccc(S(=O)(=O)N3CCCC3)cc2)cs1` the IC50 was 201 nM. `CCN(CC)S(=O)(=O)c1ccc(-c2csc(NC(=O)C3CC3)n2)cc1` gave an IC50 of 2320 nM. Compound `CCN(CC)S(=O)(=O)c1ccc(-c2csc(NC(=O)C3CCCCC3)n2)cc1` has an IC50 of 2930 nM. In the case of `CC1CCN(S(=O)(=O)c2ccc(-c3csc(NC(=O)C(C)C)n3)cc2)CC1`, the IC50 is reported as 658 nM. Compound `CCCCC(=O)Nc1nc(-c2ccc(S(=O)(=O)N3CCOCC3)cc2)cs1` has an IC50 of 552 nM. `O=C(Nc1nc(-c2ccc(S(=O)(=O)N3CCCC3)cc2)cs1)C1CC1` showed an IC50 of 558 nM. Work on `CCCCC(=O)Nc1nc(-c2ccc(S(=O)(=O)N3CCSCC3)cc2)cs1` yielded an IC50 of 713 nM. In the case of `O=C(Nc1nc(-c2ccc(S(=O)(=O)N3CCOCC3)cc2)cs1)C1CCC1`, the IC50 is reported as 3590 nM. `O=C(Nc1nc(-c2ccc(S(=O)(=O)N3CCOCC3)cc2)cs1)C1CC1` gave an IC50 of 5210 nM. `CCCCC(=O)Nc1nc(-c2ccc(S(=O)(=O)N(CC)CC)cc2)cs1` showed an IC50 of 172 nM. With `CC(C)C(=O)Nc1nc(-c2ccc(S(=O)(=O)N3CCCC3)cc2)cs1` the IC50 was 277 nM. `O=C(Nc1nc(-c2ccc(S(=O)(=O)N3CCCC3)cc2)cs1)C1CCCC1` showed an IC50 of 729 nM. `CCC(C)C(=O)Nc1nc(-c2ccc(S(=O)(=O)N(CC)CC)cc2)cs1` (centres undefined) was tested, and the IC50 was 300 nM. `CC(C)(C)OC(=O)Nc1nc(-c2ccc(S(=O)(=O)N3CCOCC3)cc2)cs1` was tested, and the IC50 was “inactive”. In the case of `CCCCC(=O)Nc1nc(-c2ccc(S(=O)(=O)N3CCC(C)CC3)cc2)cs1`, the IC50 is reported as 501 nM. `CCC(=O)Nc1nc(-c2ccc(S(=O)(=O)N3CCOCC3)cc2)cs1` was tested, and the IC50 was 4520 nM. With `CCC(=O)Nc1nc(-c2ccc(S(=O)(=O)N3CCCC3)cc2)cs1` the IC50 was 648 nM. `CCC(C)C(=O)Nc1nc(-c2ccc(S(=O)(=O)N3CCOCC3)cc2)cs1` (centres undefined) gave an IC50 of 311 nM. For `O=C(Nc1nc(-c2ccc(S(=O)(=O)N3CCCC3)cc2)cs1)C1CCC1`, the IC50 was 398 nM. In the case of `CCC(CC)C(=O)Nc1nc(-c2ccc(S(=O)(=O)N3CCOCC3)cc2)cs1`, the IC50 is reported as 334 nM. For `CCN(CC)S(=O)(=O)c1ccc(-c2csc(NC(=O)C(C)C)n2)cc1`, the IC50 was 281 nM. `CCC(=O)Nc1nc(-c2ccc(S(=O)(=O)N(CC)CC)cc2)cs1` was tested, and the IC50 was 4250 nM. For `CC(C)C(=O)Nc1nc(-c2ccc(S(=O)(=O)N(C)C)cc2)cs1`, the IC50 was 575 nM. Compound `CC(C)CC(=O)Nc1nc(-c2ccc(S(=O)(=O)N3CCOCC3)cc2)cs1` has an IC50 of 11600 nM.
